The target of the experiment is T1, CD2068 (Clostridioides difficile, UniProt Q188D7).
T1 construct: gene CD630_20680; full coding region in pET28a (NcoI/EcoRI), C-terminal His6 tag kept; expressed in E. coli BL21(DE3) pLysS; inside-out membrane vesicles; ~60 kDa
The experiment is described as follows: vanadate-sensitive ATPase stimulation, inside-out membrane vesicles, phosphate release. Type of experiment: biochemical. The source says:
vanadate-sensitive ATPase stimulation, inside-out membrane vesicles, phosphate release on CD2068

Read-outs that look alike come from different tables or passages of the source.

T1 sequence (Q188D7 entry or part of it): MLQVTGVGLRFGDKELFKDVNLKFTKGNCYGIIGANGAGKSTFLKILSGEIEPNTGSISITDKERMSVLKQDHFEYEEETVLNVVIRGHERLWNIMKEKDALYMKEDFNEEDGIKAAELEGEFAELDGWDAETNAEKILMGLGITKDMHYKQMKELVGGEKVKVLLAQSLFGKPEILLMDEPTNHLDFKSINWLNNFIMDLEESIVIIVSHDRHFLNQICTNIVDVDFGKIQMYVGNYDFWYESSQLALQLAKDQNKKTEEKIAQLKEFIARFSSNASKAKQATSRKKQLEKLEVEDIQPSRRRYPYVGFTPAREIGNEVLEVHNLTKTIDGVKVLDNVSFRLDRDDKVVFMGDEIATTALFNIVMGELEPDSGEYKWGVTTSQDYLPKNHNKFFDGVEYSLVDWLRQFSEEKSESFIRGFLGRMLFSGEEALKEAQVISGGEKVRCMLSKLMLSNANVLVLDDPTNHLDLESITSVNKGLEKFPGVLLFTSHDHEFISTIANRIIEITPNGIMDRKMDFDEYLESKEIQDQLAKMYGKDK

Turning to `CC1(C)S[C@@H]2[C@H](NC(=O)[C@H](N)c3ccccc3)C(=O)N2[C@H]1C(=O)O` [Ampicillin], the EC50 is 4.4 µM. Regarding `CO[C@@]1(NC(=O)Cc2cccs2)C(=O)N2C(C(=O)O)=C(COC(N)=O)CS[C@@H]21` [Cefoxitin], the EC50 came out at 7.6 ± 1 µM. The same measure, in the same setting: as for `Cc1onc(-c2ccccc2Cl)c1C(=O)N[C@@H]1C(=O)N2[C@@H]1SC(C)(C)[C@@H]2C(=O)O` [Cloxacillin], the figure is 3 µM. In the case of `C[C@H]1COc2c(N3CCN(C)CC3)c(F)cc3c(=O)c(C(=O)O)cn1c23` [Levofloxacin], the EC50 (read-out: ATPase activity / SC50) came to 4.5 ± 1 µM. `CC[C@H]1OC(=O)[C@H](C)[C@@H](O[C@H]2C[C@@](C)(OC)[C@@H](O)[C@H](C)O2)[C@H](C)[C@@H](O[C@@H]2O[C@H](C)C[C@H](N(C)C)[C@H]2O)[C@](C)(O)C[C@@H](C)/C(=N\OCOCCOC)[C@H](C)[C@@H](O)[C@]1(C)O` [Roxithromycin] displayed an EC50 of 2.9 µM. On to `CN[C@H](CC(C)C)C(=O)N[C@H]1C(=O)N[C@@H](CC(N)=O)C(=O)N[C@H]2C(=O)N[C@H]3C(=O)N[C@H](C(=O)N[C@H](C(=O)O)c4cc(O)cc(O)c4-c4cc3ccc4O)[C@H](O)c3ccc(c(Cl)c3)Oc3cc2cc(c3O[C@@H]2O[C@H](CO)[C@@H](O)[C@H](O)[C@H]2O[C@H]2C[C@](C)(N)[C@H](O)[C@H](C)O2)Oc2ccc(cc2Cl)[C@H]1O` [Vancomycin], for which the EC50 worked out at 3.4 ± 1 µM.

Values taken from publication PMC5577244, “CD2068 potentially mediates multidrug efflux in Clostridium difficile” (Scientific Reports, 2017).
